Measured values reported in patent publication US9693828B2, “Composition comprising acetic anhydride and a gadolinium complex, and method for the use in hyperpolarisation in MRI analysis” (BRACCO IMAGING S.P.A., priority 2011, dated 2017).

Legend:
[1] = DNP hyperpolarisation of acetic anhydride with Finlandic acid trityl radical, with or without gadolinium complex (solid state polarisation build up); format: physicochemical
Description: A stock solution of radical was prepared by dissolving Finlandic acid (2.7 mg, 2.6 μmol) in unlabeled acetic anhydride (22.2 mg) yielding a solution with a concentration of 105 μmol/g.

[2] = Dissolution and hydrolysis of hyperpolarised acetic anhydride, NMR time series of 1D spectra to follow signal decay; format: physicochemical
Description: A stock solution of radical was prepared by dissolving Finlandic acid (2.7 mg, 2.6 μmol) in unlabeled acetic anhydride (22.2 mg) yielding a solution with a concentration of 105 μmol/g. A part (2.1 mg) of this stock solution was mixed with 1,1′-^13C2 acetic anhydride (15 μl, 17.2 mg, 0.165 mmol) to make a 12.8 mM solution. […] The sample was dissolved in 5 ml water with added NaOH (12 M, 39 μl) and allowed to hydrolyze for 15 s and then neutralized by mixing with phosphate buffer (300 μl, 1M, pH 7.3) with addition of HCl (14 μl, 12M). The sample was transferred to an NMR spectrometer and the acquisition was started 30 s after the dissolution recording a time series of 1D spectra to follow signal decay.

[3] = 13C DNP, acetic anhydride/1,1'-13C2 acetic anhydride, Finlandic acid radical 12.5 mM, gadolinium complex added as labelled (none for acetic anhydride, Example 1), FIG. 1

| Molecule | exponential time constant of hyperpolarisation [1, 3] | T1 of the hydrolysis product ([2]; after dissolution in water/NaOH, hydrolysis 15 s, neutralization to pH 6.8, acquisition started 30 s after dissolution) | exponential time constant of hyperpolarisation ([1]; Example 5: 1,1'-13C2 acetic anhydride, Finlandic acid 12.8 mM, no gadolinium complex) | hydrolysis of acetic anhydride at the start of the acquisition ([2]; 5 ml water with NaOH, 15 s hydrolysis, neutralized, acquisition 30 s after dissolution) |
| --- | --- | --- | --- | --- |
| CCCCCCCCCCCCCCCCCCN(CCCCCCCCCCCCCCCCCC)C(=O)CN1CCN(CC(=O)[O-])CCN(CC(=O)[O-])CCN(CC(=O)[O-])CC1.[Gd+3] [Gadolinium complex II, [10-[2-(dioctadecylamino)-2-oxoethyl]-1,4,7,10-tetraazacyclododecane-1,4,7-triacetato(3-)]gadolinium, reference compound] | 690 s |  |  |  |
| CC(=O)O [hydrolysis product, acetic acid] |  | 45 s |  |  |
| CC(=O)OC(C)=O [acetic anhydride] | 670 s |  | 525 s | complete |
| [[α1,α4,α7-tris[(phenylmethoxy)methyl]-1,4,7,10-tetraazacyclododecane-1,4,7,10-tetraacetato(4-)]gadolinate(1-)]hydrogen [Gadolinium complex I] | 690 s |  |  |  |
| CC(O)CN1CCN(CC(=O)[O-])CCN(CC(=O)[O-])CCN(CC(=O)[O-])CC1.[Gd+3] (stereo not shown) [Gadolinium complex III, [10-(2-hydroxypropyl)-1,4,7,10-tetraazacyclododecane-1,4,7-triacetato(3-)]gadolinium, reference compound] | 750 s |  |  |  |
